{
  "source": "paper PMC8153426",
  "about": "“EfgA is a conserved formaldehyde sensor that leads to bacterial growth arrest in response to elevated formaldehyde” (PLoS Biology, 2021)",
  "molecules": {"B1": {"name": "EfgA (Mext_4158, DUF336 protein) from Methylorubrum extorquens PA1, N-terminal His-tagged derivative (natural protein)", "chain": "MHVTIEQAEKAIQAARAKAVELGTQMCIAIVDSGGNLKAFHRMDGAWVGSIDIAQKKAKTAVFFGMKTGQIGALSQPGGSLYGIEHSNQGLITFPGGIPIVDADGEMSGAIGVSGSSVENDDAVALAGASAIGDTELPDHPWRT", "notes": "EfgA, product of Mext_4158 of Methylorubrum extorquens PA1; single-domain 144 amino acid protein with a DUF336 domain; Residue numbers S114, D121, K57 are said to correspond to the native EfgA protein; The simulations count 134 EfgA residues in the structure against 144 in the gene product; also called EfgA^WT; enhanced formaldehyde growth protein A; not shown: His6 (thrombin cleavable), …"}},
  "key": {"[1]": {"target": "T1, EfgA (Methylorubrum extorquens, UniProt P0DX96)", "T1 construct": "recombinant EfgA with C-terminal 6X-His tag", "T1 sequence (P0DX96 1-144)": "B1 chain", "assay": "microscale thermophoresis (Kd), confirmed by mITC", "format": "binding", "from_the_text": "microscale thermophoresis (Kd), confirmed by mITC on EfgA | MST was used to both independently confirm the interaction of EfgA with formaldehyde and permit calculation of its affinity"}, "[2]": {"target": "T2, EfgA (Methylorubrum extorquens, UniProt P0DX96)", "T2 construct": "N-terminal His-tagged EfgA, homotetramer", "assay": "X-ray crystal structure of formaldehyde-soaked crystals, […] Å", "format": "binding"}, "[3]": {"target": "the molecule itself", "assay": "crystal structure; apo EfgA crystals (0.2 M potassium fluoride, 2.2 M ammonium sulfate, 10°C) and crystals with 16.6 mM formaldehyde (0.2 M KNO3, 2.2 M ammonium sulfate, 10°C); 4 molecules per asymmetric unit"}},
  "data": [
    {"molecule": "C=O", "note": "[formaldehyde]", "values": [
      {"measurement": "Kd", "setting": "[1]", "result": "8.01 ± 3.5", "unit": "mM"}
    ]},
    {"molecule": "OCOCO", "note": "[oxydimethanol]", "values": [
      {"measurement": "X-ray crystal structure of formaldehyde-soaked crystals, 1.83 Å", "setting": "[2]", "result": "In three EfgA monomers, new densities were modeled as oxydimethanol"}
    ]},
    {"molecule": "B1", "values": [
      {"measurement": "stoichiometry N", "setting": "[3]", "result": 4}
    ]}
  ]
}
